Among the test systems are XF 498 CNS; DLD-1 colon; RXF-631 renal.
Holding throughout (assay): growth of human tumour cells (NCI), 48 h

The structures appear in SMILES notation. “And” between values parts separate entries of the source, which are not always exact repeats. Equal values may be shown once.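 Dose response: 5 concentrations. Exposure: 48 h. Format: 96-well plates. Endpoint: linear interpolation; highest concentration if not reached. TGI: total growth inhibition.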 Bounds are passed on as bounds.

`Nc1nc(-c2ccco2)cc(-c2ccc(CO)o2)n1` yielded a TGI in the assay on XF 498 CNS of over 100 µM.
With `COC1=C(C)C(=O)c2c(cc3c(c2O)C(C)(CCC=C(C)C)C(C)O3)C1=O` (stereo unspecified), the TGI with DLD-1 colon and in the assay with XF 498 CNS was over 100 µM throughout.
In the case of `COc1cc(C2c3cc4c(cc3[C@@H](NCCN3CCOCC3)C3COC(=O)[C@H]23)OCO4)cc(OC)c1O` (stereo partly specified), in the assay with DLD-1 colon, the TGI is 22.8 µM and > 17.5 µM.
Take `CCCCCCCCC/C=C1\CCC(CN(C)C)C1=O` (stereo unspecified): the values for the TGI in the assay on RXF-631 renal and in the assay on DLD-1 colon were 4.53 µM and 4.28 µM, respectively.
Take `N#CNC(=NCCc1c[nH]c2ccccc12)Oc1ccccc1`: the TGI in the assay with DLD-1 colon and with XF 498 CNS was over 100 µM in each case.
For the compound `NC(=O)NC12CC3CC(CC(F)(C3)C1)C2`, the TGI with RXF-631 renal, in the assay with DLD-1 colon and in the assay with XF 498 CNS was over 100 µM throughout.

For the origin of these results see PubChem BioAssay (NCI).
